From patent US20260364013A1, “COMPOSITION AND METHOD OF PREPARATION OF BLOACTIVE TRITERPENOID MILK FAT GLOBULE FORMULATIONS” (EFNATICS B.V., priority 2023, published 2026)

How the values were obtained:
[1] = at a range of molar ratios; cited from earlier work
cancer cell lines = settings: cited from earlier work
tumor [2] = settings: oral, liposomal betulinic acid; cited from earlier work
[3] = system: tumor growth of predominant cancer types; settings: preclinically in vivo; cited from earlier work
tumor [4] = assay: Anti-tumor effect in mice after oral liposomal betulinic acid; type: in vivo; settings: extrapolated from 150 mg/kg weekly oral dose in mice
[5] = system: non-cancerous healthy cells; settings: in vitro; cited from earlier work
[6] = at concentrations effectively limiting cancer growth, up to 500 mg per kg bodyweight; cited from earlier work
[7] = system: stearoyl-CoA-desaturase (SCD-1); settings: role: inhibitor; cited from earlier work

For `C=C(C)[C@@H]1CC[C@]2(C)CC[C@]3(C)[C@H](CC[C@@H]4[C@@]5(C)CC[C@H](O)C(C)(C)[C@@H]5CC[C@]43C)[C@@H]12` [lupeol, (3β)-Lup-20 (29)-en-3-ol], the “Miscibility with outer leaflet membrane phospholipids” value [1] is listed as “miscible”.
For `C=C(C)[C@@H]1CC[C@]2(C(=O)O)CC[C@]3(C)[C@H](CC[C@@H]4[C@@]5(C)CC[C@H](O)C(C)(C)[C@@H]5CC[C@]43C)[C@@H]12` [betulinic acid, (3β)-3-Hydroxylup-20 (29)-en-28-oic acid], the “Activity against cancer types in vitro” value (cancer cell lines) is given as “broad activity against all prevalent cancer types in vitro”, the “Weekly orally administered dose required for the observed anti-tumor effects in mice” value (tumor [2]) is given as 150 mg/kg bodyweight and the Tumor growth inhibition [3] is given as “inhibits tumor growth of predominant cancer types”. For the same compound, the “Weekly dose extrapolated to an individual of 80 kg” value (tumor [4]) was 12 gr, the “Cytotoxicity for non-cancerous healthy cells” value [5] was “absent” and the “Signs of toxicity in animal experiments” value [6] was “no signs of toxicity were observed”. For the same compound, the “Effect on SCD-1 activity” value [7] was “inhibit the activity of stearoyl-CoA-desaturase (SCD-1)” and the “Miscibility with outer leaflet membrane phospholipids” value [1] was “miscible”.
